Read-outs that look alike come from different tables or passages of the source.

The target in test [1] is T1, 11β-hsd-1 enzyme (Homo sapiens, UniProt P28845). As to the kind of experiment: biochemical. Here is the method: The 11β-hsd-1 assay was performed in a 100 mM Triethanolamine buffer pH 8.0, containing 200 mM NaCl, 0.02% n-dodecyl β-D-maltoside, 5% glycerol, 5 mM β-mercaptoethanol. A typical reaction for the determination of Kiapp values was carried at R.T. in a Corning® u-bottom 96-well plate and is described as follows: 11β-hsd-1 enzyme (5 nM, final concentration) was pre-incubated in the presence of the inhibitor and NADPH (500 μM, final concentration) for at least 30 minutes in the assay buffer. When pre-incubation was completed, the reaction was initiated by adding the regenerating system (2 mM Glucose-6-Phosphate, 1U/mL Glucose-6-Phosphate dehydrogenase, and 6 mM MgCl2, all the concentration reported are final in the assay buffer), and 3H-cortisone (200 nM, final concentration). After 60 minutes, 60 μL of the assay mixture was transferred to a second 96-well plate and mixed with an equal volume of dimethylsulfoxide to stop the reaction. A 15 μL aliquot from the reaction mixture was loaded into a C-18 column (Polaris C18-A, 50×4.6 mm, 5 μ, 180 Angstrom from Varian) connected to an automated High-throughput Liquid Chromatography instrument developed by Cohesive Technologies Inc, of Franklin, Mass. USA, with a β-RAM model 3 Radio-HPLC detector from IN/US, of Tampa, Fla. USA. The substrate and product peaks were separated by using an isocratic mixture of 43:57 methanol to water (v/v) at a flow rate of 1.0 mL/min.
The initial reaction velocities were measured by stopping the reaction at 60 min and by measuring the area of product formation in the absence and the presence of various concentrations of inhibitors. The Kiapp values were determined using the equation for tight-binding inhibitor developed by Morrison, J. F. (Morrison J. F. Biochim BiophysActa. 1969; 185: 269-86).
The radiolabeled [1,2-3H]-cortisone is commercially available from American Radiolabeled Chemicals Inc of St. Louis, Mo. USA. NADPH, Glucose-6-Phosphate, and Glucose-6-Phosphate dehydrogenase were purchased from Sigma®.
(Morrison J. F. Biochim Biophys Acta. 1969; 185: 269-86).

Test [2] deals with T1, 11β-hsd-1 enzyme. As to the kind of experiment: biochemical. The note with it: for inhibition / inhibition at 100 µM: read-out: % Inh @ 0.1 mM; for inhibition at 0.1 µM: read-out: % Inh @ 0.1 μM; for inhibition at 100 µM: Table 2, inhibitor 0.1 mM as printed. Here is the method:
Percentage of inhibition was determined in a 100 mM Triethanolamine buffer, pH 8.0, 200 mM NaCl, 0.02% n-dodecyl β-D-maltoside and 5 mM β-ME. A typical reaction was carried on a Corning® u-bottom 96-well plate and is described as follows: 11β-hsd-1 enzyme (5 nM, final concentration) was pre-incubated in the presence of the inhibitor and NADPH (500 μM, final concentration) for at least 30 minutes
in the assay buffer. When pre-incubation was completed, the reaction was initiated by adding the regenerating system (2 mM Glucose-6-Phosphate, 1U/mL Glucose-6-Phosphate dehydrogenase, and 6 mM MgCl2, all the concentration reported are final in the assay buffer), and 3H-cortisone (200 nM, final concentration). After 60 minutes, 60 μL of the assay mixture was transferred to a second 96-well plate and mixed with an equal volume of dimethylsulfoxide to stop the reaction. A 15 μL aliquot from the reaction mixture was loaded into a C-18 column (Polaris C18-A, 50×4.6 mm, 5 μ, 180 Angstrom from Varian) connected to an automated High-throughput Liquid Chromatography instrument developed by Cohesive Technologies Inc of Franklin, Mass., with a […] model 3 Radio-HPLC detector from IN/US of Tampa, Fla. The substrate and product peaks were separated by using an isocratic mixture of 43:57 methanol to water (v/v) at a flow rate of 1.0 mL/min.
Percent Inhibition was calculated based on the following equation: (1-(3H-Cortisol peak area in the […] of inhibitor)×100).

T1 sequence (P28845 whole entry, species assumed): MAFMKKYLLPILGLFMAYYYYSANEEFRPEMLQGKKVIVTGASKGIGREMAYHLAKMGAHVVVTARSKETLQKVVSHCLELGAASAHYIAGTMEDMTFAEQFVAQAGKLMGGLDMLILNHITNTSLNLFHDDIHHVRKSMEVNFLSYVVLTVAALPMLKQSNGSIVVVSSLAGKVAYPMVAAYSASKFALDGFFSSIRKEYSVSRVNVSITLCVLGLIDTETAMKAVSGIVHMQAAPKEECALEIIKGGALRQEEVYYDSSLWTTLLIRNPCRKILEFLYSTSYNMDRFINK

A word on the Ki: it is a measure of affinity in units of concentration, obtained from inhibition or displacement. Read a high Ki as lower affinity. `CCc1cccc(NS(=O)(=O)N2CCCCCCC2)n1` [Example 193, N-(6-ethylpyridin-2-yl)azocane-1-sulfonamide] gave a Ki at 11β-hsd-1 enzyme [1] of 7.7 nM. The inhibition at 11β-hsd-1 enzyme [2] amounted to 92.5%.

In turn, `O=S(=O)(Nc1ccc2ccccc2n1)N1CCN(c2nc3ncccc3o2)CC1` [Example 176, 4-[13]oxazolo[45-b]pyridin-2-yl-N-quinolin-2-ylpiperazine-1-sulfonamide] had an inhibitory constant (Ki) at 11β-hsd-1 enzyme [1] of 110 nM. For the same compound, the inhibition at 11β-hsd-1 enzyme [2] was 70.4%.

At 11β-hsd-1 enzyme [1], `O=S(=O)(Nc1ccc2ccccc2n1)N1CCN(c2ccccn2)CC1` [Example 156, 4-pyridin-2-yl-N-quinolin-2-ylpiperazine-1-sulfonamide] showed a Ki of 17 nM. Besides, the inhibition on 11β-hsd-1 enzyme [2] is 92.9%.

Take `CCc1cccc(NS(=O)(=O)N2CCCN(c3nc4cc(Cl)ccc4o3)CC2)n1` [Example 150, 4-(5-chloro-13-benzoxazol-2-yl)-N-(6-ethylpyridin-2-yl)-14-diazepane-1-sulfonamide]: the Ki at 11β-hsd-1 enzyme [1] was found to be 23 nM. Further, the inhibition on 11β-hsd-1 enzyme [2] is 90.3%.

Compound `O=S(=O)(Nc1ccc2ccccc2n1)N1CCN(c2ccc(C(F)(F)F)cn2)CC1` [Example 14] returned a Ki at 11β-hsd-1 enzyme [1] of 4.8 nM. Besides, on 11β-hsd-1 enzyme [2], the inhibition at 0.1 µM was 100%.

`CCc1cccc(NS(=O)(=O)N2CCC(c3ccccc3OC)CC2)n1` [Example 119, N-(6-ethylpyridin-2-yl)-4-(2-methoxyphenyl)pipendine-1-sulfonamide]: on 11β-hsd-1 enzyme [1], the Ki is 37 nM. In addition, the inhibition on 11β-hsd-1 enzyme [2] amounted to 93.1%.

In turn, `O=S(=O)(Nc1ccc2ccccc2n1)N1CCOC(COc2cc(F)cc(F)c2)C1` (centres unmarked) [Example 100, 2-[(35-difluorophenoxy)meth-yl]-N-quinolin-2-ylmorpholine-4-sulfonamide] gave an inhibition constant Ki on 11β-hsd-1 enzyme [1] of 59 nM. For the same compound, the inhibition on 11β-hsd-1 enzyme [2] came out at 90.6%.

For the compound `CCc1cccc(NS(=O)(=O)N2CCC(C3CCN(C(=O)c4ccc(F)cc4)CC3)CC2)n1` [Example 108, N-(6-ethylpyridin-2-yl)-1′-(4-fluorobenzoyl)-44′-bipiperidine-1-sulfonamide], the Ki at 11β-hsd-1 enzyme [1] was 60 nM. Further, at 11β-hsd-1 enzyme [2], the inhibition amounted to 89%.

`Cc1cc(C)nc(NS(=O)(=O)N2CCN(c3ccc(C#N)cn3)[C@H](C)C2)c1` [Example 28] had an inhibition constant Ki at 11β-hsd-1 enzyme [1] of 0.66 nM. At 11β-hsd-1 enzyme [2], the inhibition at 0.1 µM amounted to 100%.

Consider `N#Cc1ccc(N2CCN(S(=O)(=O)Nc3cccc(CO)n3)CC2)nc1` [Example 29, 4-(5-cyanopyridin-2-yl)-N-[6-(hydroxymethyl)pyridin-2-yl]piperazine-1-sulfonamide], for which affinity on 11β-hsd-1 enzyme [1] was put at a Ki of 13 nM. In addition, on 11β-hsd-1 enzyme [2] (Table 1, inhibitor 0.1 μM), the inhibition at 0.1 µM worked out at 95%.

Turning to `O=S(=O)(Nc1ccc2ccccc2n1)N1CCCC(COCC2CC2)CC1` (centres unmarked) [Example 98, 4-[(cyclapropylmethoxy)meth-yl]-N-quinolin-2-ylazepane-1-sulfonamide], the affinity on 11β-hsd-1 enzyme [1], expressed as Ki, was 28 nM. The inhibition at 11β-hsd-1 enzyme [2] is 92.4%.

Turning to `CCc1cccc(NS(=O)(=O)N2CCC(Oc3ccc(Cl)cc3)CC2)n1` [Example 112, 4-(4-chlorophenoxy)-N-(6-ethylpyridin-2-yl)pipendine-1-sulfonamide], the affinity at 11β-hsd-1 enzyme [1] corresponds to a Ki of 18 nM. Moreover, the inhibition on 11β-hsd-1 enzyme [2] came out at 100%.

The compound `CCCC1CCN(S(=O)(=O)Nc2cccc(CC)n2)CC1` [Example 89, N-(6-ethylpyridin-2-yl)-4-propylpiperidine-1-sulfonamide] had a Ki on 11β-hsd-1 enzyme [1] of 1 nM. For the same compound, at 11β-hsd-1 enzyme [2], the inhibition worked out at 100%.

For `CCc1cccc(NS(=O)(=O)N2CCN(c3ccccn3)CC2)n1` [Example 194, N-(6-ethylpyridin-2-yl)-4-pyridin-2-ylpiperazine-1-sulfonamide], the Ki on 11β-hsd-1 enzyme [1] worked out at 37 nM. For the same compound, at 11β-hsd-1 enzyme [2], the inhibition at 100 µM stood at 81.4%.

In turn, `CCc1cccc(NS(=O)(=O)N2CCCC(F)(F)C2)n1` [Example 101, N-(6-ethylpyridin-2-yl)-33-difluoropiperidine-1-sulfonamide] yielded a Ki at 11β-hsd-1 enzyme [1] of 34 nM. Further, the inhibition on 11β-hsd-1 enzyme [2] turned out to be 78.3%.

`CCc1cccc(NS(=O)(=O)N2CCCN(c3ncccc3C#N)CC2)n1` [Example 187, 4-(3-cyanopyridin-2-yl)-N-(6-ethylpyridin-2-yl)-14-diazepane-1-sulfonamide]: on 11β-hsd-1 enzyme [1], the Ki came out at 160 nM. In addition, the inhibition at 11β-hsd-1 enzyme [2] was determined as 68.8%.

`Cc1cccc(NS(=O)(=O)N2CCCN(c3ccc(C#N)cn3)CC2)n1` [Example 44] came in with a Ki on 11β-hsd-1 enzyme [1] of 34 nM. Besides, on 11β-hsd-1 enzyme [2], the inhibition at 0.1 µM is 72%.

Compound `N#Cc1ccc(C2CCN(S(=O)(=O)Nc3ccc4ccccc4n3)CC2)nc1` [Example 38] displayed an inhibitory constant (Ki) at 11β-hsd-1 enzyme [1] of 31 nM. Besides, the inhibition at 0.1 µM on 11β-hsd-1 enzyme [2] was determined as 100%.

`O=S(=O)(Nc1ccc2ccccc2n1)N1CCN(c2ncccn2)CC1` [Example 154, 4-pyrimidin-2-yl-N-quinolin-2-ylpiperazine-1-sulfonamide] displayed a Ki at 11β-hsd-1 enzyme [1] of 5.1 nM. For the same compound, on 11β-hsd-1 enzyme [2], the inhibition came out at 100%.

`CCc1cccc(NS(=O)(=O)N2CCC(CCc3ccccn3)CC2)n1` [Example 80, N-(6-ethylpyridin-2-yl)-4-(2-pyridin-2-ylethyl)piperidine-1-sulfonamide] displayed a Ki on 11β-hsd-1 enzyme [1] of 5.6 nM. In addition, the inhibition on 11β-hsd-1 enzyme [2] amounted to 93.8%.

On to `Cc1cc(C)nc(NS(=O)(=O)N2CCN(c3ccc(C(F)(F)F)cn3)CC2)c1` [Example 1, N-(4,6-dimethylpyridin-2-yl)-4-[5-(trifluoromethyl)pyridin-2-yl]piperazine-1-sufonamide], for which, at 11β-hsd-1 enzyme [1], the Ki came out at 4.1 nM. On 11β-hsd-1 enzyme [2], the inhibition at 0.1 µM came to 95.9%.

With `CS(=O)(=O)c1ccc2c(c1)CCN(S(=O)(=O)Nc1ccc3ccccc3n1)CC2` [Example 12, 7-(Methylsulfonyl)-N-quinolin-2-yl-1,2,4,5-tetrahydro-3H-3-benzazepine-3-sulfonamide], at 11β-hsd-1 enzyme [1], the Ki worked out at 8.6 nM. For the same compound, on 11β-hsd-1 enzyme [2] (Table 1, inhibitor 0.1 μM), the inhibition at 0.1 µM was determined as 100%.

At 11β-hsd-1 enzyme [1], `Cc1cc(N)nc(NS(=O)(=O)N2CCN(c3ccc(C#N)cn3)CC2)c1` [Example 20, N-(6-amino-4-methylpyridin-2-yl)-4-(5-cyanopyridin-2-yl)piperazine-1-sulfonamide] gave a Ki of 2.5 nM. The inhibition at 0.1 µM on 11β-hsd-1 enzyme [2] amounted to 100%.

On 11β-hsd-1 enzyme [1], `CCc1cccc(NS(=O)(=O)N2CCC(c3ccccc3F)CC2)n1` [Example 113, N-(6-ethylpyridin-2-yl)-4-(2-fluorophenyl)piperidine-1-sulfonamide] displayed a Ki of 16 nM. For the same compound, the inhibition on 11β-hsd-1 enzyme [2] was 89.2%.

Consider `O=S(=O)(Nc1ccc2ncccc2n1)N1CCN(c2ccc(C(F)(F)F)cn2)CC1` [Example 35, N-1,5-naphthyridin-2-yl-4-[5-(trifluoromethyl)pyridin-2-yl]piperazine-1-sulfonamide], for which the Ki on 11β-hsd-1 enzyme [1] is 10 nM. Moreover, on 11β-hsd-1 enzyme [2], the inhibition at 0.1 µM was found to be 100%.

At 11β-hsd-1 enzyme [1], `CCc1cccc(NS(=O)(=O)N2CCc3nc(-c4ccccc4)nc(C(=O)NC)c3C2)n1` [Example 148, 6-{[(6-ethylpyridin-2-yl)amino]sulfonyl}-N-methyl-2-phenyl-5678-tetrahydro-pyrido[43-d]pyrimidine-4-carboxamide] showed a Ki of 26 nM. For the same compound, the inhibition at 11β-hsd-1 enzyme [2] came to 83.9%.

On 11β-hsd-1 enzyme [1], `CCc1cccc(NS(=O)(=O)N2CCN(c3cccc(OC)n3)CC2)n1` [Example 183, N-(6-ethylpyridin-2-yl)-4-(6-methoxypyridin-2-yl)piperazine-1-sulfonamide] came in with a Ki of 11.5 nM. Besides, the inhibition at 100 µM on 11β-hsd-1 enzyme [2] amounted to 100%.

With `CCc1cccc(NS(=O)(=O)N2CCN(c3ncc(C(F)(F)F)cc3Cl)CC2)n1` [Example 195, 4-[3-chloro-5-(trifluoromethyl)pyridin-2-yl]-N-(6-ethylpyridin-2-yl)piperazine-1-sulfonamide], affinity at 11β-hsd-1 enzyme [1] was put at a Ki of 29 nM. At 11β-hsd-1 enzyme [2], the inhibition is 92.3%.

Source of the values: patent publication US20070027118A1 (priority 2005, published 2007).
